Results on two compounds are retold here after patent publication US3959272A, “Aminoalkyl esters of 2-anilino-nicotinic acids” (Societe Anonyme dite: Hexachime, priority 1972, dated 1976).

Molecules are shown by their SMILES.

The nature of data set [1]: Anti-inflammatory activity: oedema provoked by carragenin in the rat. It counts as in vivo. Particulars: po, read-out: percentage inhibition of oedema; for inhibition in vivo at 256 mg/kg: 256 mg/kg orally. The method, then:
The method used was as follows.
The anti-inflammatory activity was measured on oedema provoked by carragenin in the rat. Groups of six male rats each weighing 120 to 130 g received the compound under test orally in suspension in "tween 80", half the dose being given 2 hours before and the other half 1/2 hour before the subcutaneous plantar injection of 0.05 ml of a 1 % carragenin solution. The volume of the injected paw was measured by plethysmography at regular intervals. Table 1 below gives the percentage inhibition of the oedema with reference to untreated controls.

The nature of data set [2]: Analgesic activity: Siegmund's test (phenylbenzoquinone painful reactions). The settings on record: Mus musculus, po, read-out: percentage inhibition of reactions; for inhibition in vivo at 64 mg/kg: 64 mg/kg orally; for inhibition in vivo at 128 mg/kg: 128 mg/kg orally; for inhibition in vivo at 256 mg/kg: 256 mg/kg orally. The class given is in vivo. The procedure: This activity was measured by Siegmund's test in mice and Randall and Selitto's test in the rat.
Groups of six mice received the compound under test orally 1 hour before intraperitoneal injection of 0.2 ml of an 0.02% of solution of phenylbenzoquinone. The number of painful reactiors from the fifth to the tenth minute after the injection of phenylbenzoquinone was counted.

A short description of data set [3]: Escape test. The class given is in vivo. Particulars: Mus musculus, ip, 0.5 h, read-out: Percentage inhibition (number of attempts to escape); for change in vivo at 16 mg/kg: 16 mg/kg intraperitoneally; for change in vivo at 32 mg/kg: 32 mg/kg intraperitoneally; for change in vivo at 64 mg/kg: 64 mg/kg intraperitoneally; for change in vivo at 128 mg/kg: 128 mg/kg intraperitoneally. The procedure: Groups of 8 mice were placed in sub groups of 4 in an enclosure from which they could escape by an inclined plane. The number of attempts to escape during 5 minutes were counted half an hour after intraperitoneal administration of the compound under test.

Data set [4] can be described thus: Antagonism of convulsions produced by cardiazole. The class given is in vivo. The settings on record: Mus musculus, ip, read-out: Percentage inhibition of tonic convulsions; for inhibition in vivo at 64 mg/kg: 64 mg/kg intraperitoneally; for inhibition in vivo at 128 mg/kg: 128 mg/kg intraperitoneally. The procedure:
Groups of 6 mice received the compound under test 30 minutes before introperitoneal injection of 160 mg/kg of cardiazole. The action of the compound under test on the tonic convulsion phase was observed.

Data set [5] is described as follows: Solubility in water. It counts as physicochemical. Particulars: monohydrochloride.
Data set [6] is described as follows: Analgesic activity: Randall and Selitto's test (beer yeast paw, pain threshold). It counts as in vivo, rat. The method, then: This activity was measured by Siegmund's test in mice and Randall and Selitto's test in the rat. Groups of ten male rats each weight 120 to 140 g received by subcutaneous plantar injection 0.05 ml of a 5% aqueous suspension of beer yeast. 2 Hours after this treatment they received the compound under test orally and 1 hour after administration of this compound the paw which had been injected and the contralateral paw were subjected to increasing pressure. The appearance of the pain threshold was noted.

Take `Cc1cccc(Cl)c1Nc1ncccc1C(=O)OCCN1CCOCC1` [Example 9, β-Morpholino ethyl 2-(2-chloro-6-methylanilino) nicotinate]: the inhibition in vivo at 16 mg/kg in data set [1] (16 mg/kg orally) turned out to be 7%. For the same compound, in data set [1] (64 mg/kg orally), the inhibition in vivo at 64 mg/kg came to 20%. For the same compound, the inhibition in vivo at 256 mg/kg in data set [1] amounted to 39%. Also, the inhibition in vivo at 16 mg/kg in data set [2] (16 mg/kg orally) worked out at 14%. In addition, the inhibition in vivo at 32 mg/kg in data set [2] (32 mg/kg orally) was 8%. In addition, in data set [2], the inhibition in vivo at 64 mg/kg was determined as 8%, the inhibition in vivo at 128 mg/kg amounted to 37% and the inhibition in vivo at 256 mg/kg is 66%. Also, in data set [3], the change in vivo at 16 mg/kg is -19%, the change in vivo at 32 mg/kg was -22%, the change in vivo at 64 mg/kg was -59% and the change in vivo at 128 mg/kg is -100%. In addition, in data set [4], the inhibition in vivo at 64 mg/kg stood at 0% and the inhibition in vivo at 128 mg/kg was 100%. In data set [5], the solubility in water entry is given as “soluble in water”.

`Cc1cccc(Nc2ncccc2C(=O)OCC(C)(C)N(C)C)c1C` [Example 3, 2-Dimethylamino-2-methylpropyl nixylate]: the inhibition in vivo at 128 mg/kg stood at 0% in data set [1] (128 mg/kg orally), 49% in data set [2] and 100% in data set [4]. Besides, the results for the inhibition in vivo at 256 mg/kg in data set [1] and in data set [2] were 72% and 75%, respectively. The inhibition in vivo at 512 mg/kg in data set [1] (512 mg/kg orally) came out at 67%. The values for the inhibition in vivo at 64 mg/kg in data set [2] and in data set [4] were 31% and 83%, respectively. In addition, the “percentage increase of pain threshold” value stood at 33% in data set [6] (with yeast, 16 mg/kg orally); 42% in data set [6] (with yeast, 32 mg/kg orally); 66% in data set [6] (with yeast, 64 mg/kg orally); 41% in data set [6] (with yeast, 128 mg/kg orally); 0% in data set [6] (without yeast, 32 mg/kg orally); 2% in data set [6] (without yeast, 64 mg/kg orally). Also, the “percentage increase of pain threshold” value was found to be 11% in data set [6] (without yeast, 128 mg/kg orally) and 0% in data set [6] (without yeast, 256 mg/kg orally). Further, the change in vivo at 8 mg/kg in data set [3] (8 mg/kg intraperitoneally) was -16%. For the same compound, the change in vivo at 16 mg/kg in data set [3] is -15%. Also, the change in vivo at 32 mg/kg in data set [3] is -30%. Further, in data set [3], the change in vivo at 64 mg/kg is -67%. For the same compound, the change in vivo at 128 mg/kg in data set [3] is -95%. Also, the inhibition in vivo at 8 mg/kg in data set [4] (8 mg/kg intraperitoneally) came out at 0%. Moreover, in data set [4] (16 mg/kg intraperitoneally), the inhibition in vivo at 16 mg/kg is 5%. Besides, in data set [4] (32 mg/kg intraperitoneally), the inhibition in vivo at 32 mg/kg is 16%. Moreover, the solubility in water entry in data set [5] is “soluble in water”.
